Measured values reported in publication PMC10600239, “Selective MCL-1 inhibitor ABBV-467 is efficacious in tumor models but is associated with cardiac troponin increases in patients” (Communications Medicine, 2023).
“And” between values parts separate entries of the source, which are not always exact repeats. Identical values can stand only once.

Experiments:
troponin = assay: Troponin monitoring in phase 1 patients; assay type: in vivo, human; conditions: for Troponin I, Central Laboratory: reference range ≤0.04 ng/mL; for Troponin T: patient, normal range 0-0.014
Method: Blood samples for plasma ABBV-467 concentration analysis were collected on days 1, 2, 3, and 15–17 of cycle 1 as well as on days 1 of cycles for PK analysis. Plasma samples of ABBV-467 were quantified using a validated LC-tandem MS with a lower limit of detection of 3 ng/mL. ABBV-467 PK parameters were calculated using standard non-compartmental approaches with Phoenix, WinNonlin (Version 8.0, Certara). AE severity was graded according to the National Cancer Institute Common Terminology Criteria for Adverse Events v5.0 for up to 30 days after the last dose. Analyses of AEs will include only treatment-emergent AEs. Triplicate ECGs were performed on days 1, 2, 15, and 16 of cycle 1. […] An echocardiogram was performed at screening and day 1 of cycle 2 and cycle 6. […]
Creatine Phosphokinase and Troponin Enzymes
Blood samples will be collected on the days specified in Section 2 for analysis of creatine phosphokinase and troponin serum concentrations. Clinical significance of these enzymes will be evaluated within the […]
context of the study. Samples should also be obtained as clinically indicated in the opinion of the investigator.
Table 9. Creatine Phosphokinase and Troponin Sampling Times […]
4, 8, 24, and 48 hours post-EOI
4, 8, 24 and 48 hours post-EOI
Sample times are relative to ABBV-467 infusion. […]

Kv11.1 (hERG) = Kv11.1 (hERG) (Homo sapiens, UniProt Q12809); assay: in vitro; conditions: CHO cells expressing human Kv11.1 (hERG)
Kv11.1 (hERG), sequence (Q12809 whole entry): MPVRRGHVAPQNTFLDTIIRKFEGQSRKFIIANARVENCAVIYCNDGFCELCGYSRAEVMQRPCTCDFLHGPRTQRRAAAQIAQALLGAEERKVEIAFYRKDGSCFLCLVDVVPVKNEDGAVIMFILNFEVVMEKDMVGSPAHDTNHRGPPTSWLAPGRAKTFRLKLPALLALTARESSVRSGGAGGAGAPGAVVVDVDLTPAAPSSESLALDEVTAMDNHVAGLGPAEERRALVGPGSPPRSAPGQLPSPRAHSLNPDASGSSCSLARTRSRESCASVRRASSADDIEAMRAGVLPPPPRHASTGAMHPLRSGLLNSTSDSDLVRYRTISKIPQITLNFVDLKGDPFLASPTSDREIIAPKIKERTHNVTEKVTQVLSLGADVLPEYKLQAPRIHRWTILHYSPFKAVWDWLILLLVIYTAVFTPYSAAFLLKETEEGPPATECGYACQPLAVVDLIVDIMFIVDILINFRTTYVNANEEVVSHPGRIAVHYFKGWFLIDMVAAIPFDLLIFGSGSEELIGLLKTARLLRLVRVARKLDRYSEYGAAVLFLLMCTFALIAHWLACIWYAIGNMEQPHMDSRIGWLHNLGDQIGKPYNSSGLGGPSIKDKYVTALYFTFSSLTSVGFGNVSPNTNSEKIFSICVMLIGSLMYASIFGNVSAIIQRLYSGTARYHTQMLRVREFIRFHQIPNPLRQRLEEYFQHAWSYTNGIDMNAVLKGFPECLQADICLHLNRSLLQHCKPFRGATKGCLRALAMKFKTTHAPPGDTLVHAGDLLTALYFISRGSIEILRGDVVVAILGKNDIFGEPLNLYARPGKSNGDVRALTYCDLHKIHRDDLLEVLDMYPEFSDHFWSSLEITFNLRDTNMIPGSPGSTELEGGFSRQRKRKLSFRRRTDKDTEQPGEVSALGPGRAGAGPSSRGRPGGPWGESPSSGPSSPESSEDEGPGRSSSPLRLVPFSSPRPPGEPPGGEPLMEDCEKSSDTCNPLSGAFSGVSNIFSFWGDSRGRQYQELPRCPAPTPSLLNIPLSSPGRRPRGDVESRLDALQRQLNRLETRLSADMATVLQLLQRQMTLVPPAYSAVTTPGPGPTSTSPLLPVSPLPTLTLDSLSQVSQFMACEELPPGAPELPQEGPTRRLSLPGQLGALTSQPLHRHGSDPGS

[1] = of the 4 patients with elevations

`Cc1c(Cl)c2c(Cl)c(C)c1-c1c(-c3ccc(F)cc3)sc3ncnc(c13)O[C@@H](C(=O)O)Cc1cc(ccc1OCc1ccnc(-c3ccc(OC[C@H]4COCCO4)cc3)n1)OC[C@@H](CN1CCN(C)CC1)O2` [ABBV-467] was tested, and the “Troponin I, Central Laboratory” value (troponin; Patient 6, C1D2 24h post EOI, study day 2) was under 0.03 ng/mL, the “Troponin I, Central Laboratory” value (troponin; Patient 6, C1D3 48hr Post EOI, study day 3) was under 0.03 ng/mL and the “Troponin I, Central Laboratory” value (troponin; Patient 6, C1D15 4hr Post EOI, study day 15) was under 0.03 ng/mL. For the same compound, the “Troponin I, Central Laboratory” value (troponin; Patient 6, C1D15 8h post EOI, study day 15) was under 0.03 ng/mL, the “Troponin I, Central Laboratory” value (troponin; Patient 6, C1D15 Predose, study day 15) was under 0.03 ng/mL and the “Troponin I, Central Laboratory” value (troponin; Patient 6, C1D16 24h post EOI, study day 16) was under 0.03 ng/mL. The “Troponin I, Central Laboratory” value (troponin; Patient 6, C1D17 48hr Post EOI, study day 17) was under 0.03 ng/mL, the “Troponin I, Central Laboratory” value (troponin; Patient 7, C1D1 4hr Post EOI, study day 1) was under 0.03 ng/mL and the “Troponin I, Central Laboratory” value (troponin; Patient 7, C1D1 8hr post EOI, study day 1) was under 0.03 ng/mL. For the same compound, the “Troponin I, Central Laboratory” value (troponin; Patient 7, C1D1 Predose, study day 1) was under 0.03 ng/mL, the “Troponin I, Central Laboratory” value (troponin; Patient 7, C1D2 24h post EOI, study day 2) was under 0.03 ng/mL and the “Troponin I, Central Laboratory” value (troponin; Patient 7, C1D3 48hr Post EOI, study day 3) was under 0.03 ng/mL. For the same compound, the “Troponin I, Central Laboratory” value (troponin; Patient 7, C1D15 4hr Post EOI, study day 15) was under 0.03 ng/mL, the “Troponin I, Central Laboratory” value (troponin; Patient 7, C1D15 8h post EOI, study day 15) was under 0.03 ng/mL and the “Troponin I, Central Laboratory” value (troponin; Patient 7, C1D15 Predose, study day 15) was under 0.03 ng/mL. For the same compound, the “Troponin I, Central Laboratory” value (troponin; Patient 7, C1D16 24h post EOI, study day 16) was under 0.03 ng/mL, the “Troponin I, Central Laboratory” value (troponin; Patient 7, C1D17 48hr Post EOI, study day 17) was under 0.03 ng/mL and the “Troponin I, Central Laboratory” value (troponin; Patient 8, C1D1 4hr Post EOI, study day 1) was under 0.03 ng/mL. The “Troponin I, Central Laboratory” value (troponin; Patient 8, C1D1 8hr post EOI, study day 1) was under 0.03 ng/mL, the “Troponin I, Central Laboratory” value (troponin; Patient 8, C1D1 Predose, study day 1) was under 0.03 ng/mL and the “Troponin I, Central Laboratory” value (troponin; Patient 8, C1D2 24h post EOI, study day 2) was under 0.03 ng/mL. For the same compound, the “Troponin I, Central Laboratory” value (troponin; Patient 8, C1D3 48hr Post EOI, study day 3) was under 0.03 ng/mL, the “Troponin I, Central Laboratory” value (troponin; Patient 8, C1D15 4hr Post EOI, study day 15) was under 0.03 ng/mL and the “Troponin I, Central Laboratory” value (troponin; Patient 8, C1D15 8h post EOI, study day 15) was under 0.03 ng/mL. For the same compound, the “Troponin I, Central Laboratory” value (troponin; Patient 8, C1D15 Predose, study day 15) was under 0.03 ng/mL, the “Troponin I, Central Laboratory” value (troponin; Patient 8, C1D16 24h post EOI, study day 16) was under 0.03 ng/mL and the “Troponin I, Central Laboratory” value (troponin; Patient 8, C1D17 48hr Post EOI, study day 17) was 0.03 ng/mL. For the same compound, the “relation of grade ≥1 elevated troponin to peak plasma concentration and AUC” value (troponin; across the studied dose range) was “unrelated”, the “patients with troponin elevations” value (troponin; all doses, N = 8) was 4 (50%) patients (%) and the “patients with troponin elevations” value (troponin; dose 0.32 mg/kg) was 1 (12.5%) patients (%). For the same compound, the “first blood draw post-infusion at which troponin elevations were detectable” value (troponin; human, in vivo) was 4 h, the “patients with grade 1 troponin elevation” value (troponin; [1]) was 3 (75%) patients (%) and the “patients with grade 3 troponin elevation” value (troponin; [1]) was 1 (25%) patients (%). For the same compound, the “Troponin T” value (troponin; LBDY 1) was 0.011 µg/L, the “Troponin T” value (troponin; LBDY 9) was 0.021 µg/L and the “Troponin T” value (troponin; LBDY 11) was 0.038 µg/L. The “Troponin T” value (troponin; LBDY 12) was 0.032 µg/L, the “Troponin T” value (troponin; LBDY 15) was 0.018 µg/L and 0.019 µg/L and the “Troponin T” value (troponin; LBDY 16) was 0.021 µg/L. The “Troponin T” value (troponin; LBDY 17) was 0.024 µg/L, the “Troponin T” value (troponin; LBDY 18) was 0.027 µg/L and the “Troponin T” value (troponin; LBDY 19) was 0.025 µg/L. For the same compound, the “Troponin T” value (troponin; LBDY 22) was 0.015 µg/L, the “Troponin T” value (troponin; LBDY 23) was 0.019 µg/L and the “Troponin T” value (troponin; LBDY 25) was 0.024 µg/L. For the same compound, the “Troponin T” value (troponin; LBDY 26) was 0.019 µg/L, the “Troponin T” value (troponin; LBDY 30 (Note: 29)) was 0.021 µg/L and the “Troponin T” value (troponin; LBDY 36 (Note: missing)) was 0.018 µg/L. The “Troponin T” value (troponin; LBDY 61 (Note: missing)) was 0.016 µg/L, the “troponin I, grade 3 elevation, multiple of upper limit of normal” value (troponin; single patient) was 1.9 × upper limit of normal and the IC50 (Kv11.1 (hERG)) was over 30 µM.
